Laboratory results from ChEMBL document CHEMBL1208770, “Inhibitors of osteoclastogenesis from Lawsonia inermis leaves” (Bioorg Med Chem Lett, 2010).

Key:
[1] = Cytotoxicity against mouse BMDM cells at 10 uM after 72 hrs by MTS assay; format: cell-based
[2] = Inhibition of RANKL-induced osteoclastogenesis in mouse BMDM assessed as decrease in TRAP-positive cells at 10 uM after 5 days by light microscopy; format: functional; details: 120 h

## O=c1ccc2ccc(O[C@@H]3O[C@H](CO)[C@@H](O)[C@H](O)[C@H]3O)c(O[C@@H]3O[C@H](CO)[C@@H](O)[C@H](O)[C@H]3O)c2o1 [DAPHNESIDE]
[1]
  Activity: Non-toxic
[2]
  inhibition at 10 µM: 20%

## COc1cc2cc(Oc3ccc4ccc(=O)oc4c3)c(=O)oc2cc1O[C@@H]1O[C@H](CO)[C@@H](O)[C@H](O)[C@H]1O [DAPHNORIN]
[1]
  Activity: Non-toxic
[2]
  inhibition at 10 µM: 13%
